Test results taken from patent US20130096088A1, “Inhibitors of Protein Tyrosine Kinase Activity” (METHYLGENE INC., priority 2011, published 2013).
Like-named read-outs stand apart in the source and are kept apart here.

Key:
[1] = molecular target: T1, VEGFR2 (KDR) (Homo sapiens, UniProt P35968); assay: In vitro receptor tyrosine kinase assay (VEGF receptor KDR), DELFIA; assay type: biochemical; conditions: recombinant GST-VEGFR2 806-1356, ATP 0.6 uM; read-out: VEGFR IC50UM
T1 construct: made in house; host or cells: Sf9 cells (Spodoptera frugiperda), baculovirus
Description: In Vitro Receptor Tyrosine Kinase Assay (VEGF Receptor KDR)
This test measures the ability of compounds to inhibit the enzymatic activity of recombinant human VEGF receptor enzymatic activity.
A 1.6-kb cDNA corresponding to the catalytic domain of VEGFR2 (KDR) (Genbank accession number AF035121 amino acid 806 to 1356) is cloned into the Pst I site of the pDEST20 Gateway vector (Invitrogen) for the production of a GST-tagged version of that enzyme. This construct is used to generate recombinant baculovirus using the Bac-to-Bac™ system according to the manufacturer's instructions (Invitrogen).
The GST-VEGFR2806-1356 protein is expressed in Sf9 cells (Spodoptera frugiperda) upon infection with recombinant baculovirus construct. Briefly, Sf9 cells grown in suspension and maintained in serum-free medium (Sf900 II supplemented with gentamycin) at a cell density of about 2×10^6 cells/ml are infected with the above-mentioned viruses at a multiplicity of infection (MOI) of 0.1 during 72 hours at 27° C. with agitation at 120 rpm on a rotary shaker. Infected cells are harvested by centrifugation at 398 g for 15 min. Cell pellets are frozen at −80° C. until purification is performed.
All steps described in cell extraction and purification are performed at 4° C. Frozen Sf9 cell pellets infected with the GST-VEGFR2806-1356 recombinant baculovirus are thawed and gently resuspended in Buffer A (PBS pH 7.3 supplemented with 1 μg/ml pepstatin, 2 μg/ml Aprotinin and leupeptin, 50 μg/ml PMSF, 50 μg/ml TLCK and 10 μM E64 and 0.5 mM DTT) using 3 ml of buffer per gram of cells. Suspension is Dounce homogenized and 1% Triton X-100 is added to the homogenate after which it is centrifuged at 22500 g, 30 min., 4° C. The supernatant (cell extract) is used as starting material for purification of GST-VEGFR2806-1356.
The supernatant is loaded onto a GST-agarose column (Sigma) equilibrated with PBS pH 7.3. Following a four column volume (CV) wash with PBS pH 7.3+1% Triton X-100 and 4 CV wash with buffer B (50 mM Tris pH 8.0, 20% glycerol and 100 mM NaCl), bound proteins are step eluted with 5 CV of buffer B supplemented with 5 mM DTT and 15 mM glutathion. GST-VEGFR2806-1356 enriched fractions from this chromatography step are pooled based on U.V. trace i.e. fractions with high O.D.280. Final GST-VEGFR2806-1356 protein preparations concentrations are about 0.7 mg/ml with purity approximating 70%. Purified GST-VEGFR2806-1356 protein stocks are aliquoted and frozen at −80° C. prior to use in enzymatic assay.
Inhibition of VEGFR/KDR is measured in a DELFIA™ assay (Perkin Elmer). The substrate poly(Glu4,Tyr) is immobilized onto black high-binding polystyrene 96-well plates. The coated plates are washed and stored at 4° C. During the assay, the enzyme is pre-incubated with inhibitor and Mg-ATP on ice in polypropylene 96-well plates for 4 minutes, and then transferred to the coated plates. The subsequent kinase reaction takes place at 30° C. for 10-30 minutes. ATP concentrations in the assay are 0.6 uM for VEGFR/KDR (2× the Km). Enzyme concentration is 5 nM. After incubation, the kinase reactions are quenched with EDTA and the plates are washed. Phosphorylated product is detected by incubation with Europium-labeled anti-phosphotyrosine MoAb. After washing the plates, bound MoAb is detected by time-resolved fluorescence in a Gemini SpectraMax reader (Molecular Devices). Compounds are evaluated over a range of concentrations, and IC50 values (concentration of compounds giving 50% inhibition of enzymatic activity) are determined.

[2] = test system: laser-induced choroidal neovascularization (CNV); assay: In vivo choroidal neovascularization (CNV) model; design: species or system rat; conditions: Brown-Norway rats, injection on Day 3, CNV area on Day 10
Description: In Vivo Choroidal Neovascularization (CNV) Model This test measures the capacity of compounds to inhibit CNV progression. CNV is the main cause of severe vision loss in patients suffering from age-related macular degeneration (AMD). Male Brown-Norway rats (Charles River Japan Co., Ltd.) were used in these studies. Rats were anesthetized by intraperitoneal injection of pentobarbital, and the right pupil was dilated with 0.5% tropicamide and 0.5% phenylephrine hydrochloride. The right eye received 6 laser burns between retinal vessels using a slit lamp delivery system of Green laser Photocoagulator (Nidex Inc., Japan), and microscope slide glass with 10 mg/mL hyaluronic acid (SIGMA) used as a contact lens. The laser power was 200 mW for 0.1 second and spot diameter was 100 μm. At the time of laser burn, bubble production was observed; which is an indication of rupture of Bruch's membrane which is important for CNV generation. After animals were anesthetized, and the right pupil dilated (as mentioned above), the right eye of the animal received the compound or vehicle by an injection (3 μL/eye) at doses of 3 or 10 nmol/eye on Day 3. The compounds were dissolved or suspended in CBS, PBS, or other adequate vehicles before injection. On Day 10, the animals were anesthetized with ether, and high molecular weight fluorescein isothiocyanate (FITC)-dextran (SIGMA, 2×10^6 MW) was injected via a tail vein (20 mg/rat). About 30 min after FITC-dextran injection, animals were euthanized by ether or carbon dioxide, and the eyes were removed and fixed with 10% formaline neutral buffer solution. After over 1 hour of fixation, RPE-choroid-sclera flat mounts were obtained by removing cornea, lens and retina from the eyeballs. The flat mounts were mounted in 50% glycerol on a microscope slide, and the portion burned by laser was photographed using a fluorescence microscope (Nikon Corporation, excitation filter: 465-495 nm, absorption filter: 515-555 nm). The CNV area was obtained by measurement of hyper-fluorescence area observed on the photograph using Scion image. The average CNV area of 6 burns was used as an individual value of CNV area, and the average CNV area of compound treated group was compared with that of the vehicle-treated group.

[3] = test system: phospho ERK1/2 (T202/Y204) in HUVEC cells; assay: VEGF-dependent Erk phosphorylation; assay type: cell-based; conditions: VEGF165 150 ng/ml, Western blot, read-out: P_ERK IC50UM
Description: VEGF-Dependent Erk Phosphorylation
HUVEC cells are purchased from Cambrex Bio Science Walkersville, Inc and cultured according to the vendor's instructions. The full-length coding sequence of VEGF165 is cloned using the Gateway Cloning Technology (Invitrogen) for baculovirus expression Sf9 cells. VEGF165 is purified from conditioned media using a NaCl gradient elution from a HiTrap heparin column (GE Healthcare Life Sciences) followed by an imidazole gradient elution from a HiTrap chelating column (GE Healthcare Life Sciences), then buffer stored in PBS supplemented with 0.1% BSA and filter sterilized
Cells are seeded at 8000 cells/well of a 96 wells plate and grown for 48 hours. Cells are then grown overnight in serum and growth factor-free medium and exposed for 1.5 h to compounds dilutions. Following a 15 min incubation in medium, VEGF165 (150 ng/ml) cells are lysed in ice-cold lysis buffer (50 mM HEPES, pH 7.4, 150 mM NaCl, 1.5 mM MgCl2, 1% Triton X-100, 10% glycerol) containing 1 mM 4-(2 aminoethyl)benzenesulfonyl fluoride hydrochloride, 200 μM sodium orthovanadate, 1 mM sodium fluoride, 10 μg/mL leupeptin, 10 μg/mL aprotinin, 1 μg/mL pepstatin and 50 μg/mL Na-p-tosyl-L-lysine chloromethyl ketone hydrochloride and processed as Western blots to detect anti-phospho ERK1/2 (T202/Y204) (Cell Signaling Technologies).
lysates samples from single treatment wells are separated on 5-20% SDS-PAGE gels and immunobloting is performed using Immobilon polyvinylidene difluoride membranes (Amersham) according to the manufacturer's instructions. The blots are washed in Tris-buffered saline with 0.1% Tween 20 detergent (TBST) and probed for antibodies against phospho-Thr202/Tyr204-ERK (Cell signaling technologies. Chemiluminescence detection (Amersham, ECL plus) is performed according to the manufacturer's instructions using a Storm densitometer (GE Healthcare; 800 PMT, […]) for imaging and densitometry analysis. Values of over the range of dilution are used to prepare IC50 curves using a 4-parameter fit model. These curves are calculated using GraFit

[4] = Rattus norvegicus, 240 h, dose 3 nmol/eye, read-out: Inhibition of CNV Progression (%)

T1 sequence (P35968 806-1356): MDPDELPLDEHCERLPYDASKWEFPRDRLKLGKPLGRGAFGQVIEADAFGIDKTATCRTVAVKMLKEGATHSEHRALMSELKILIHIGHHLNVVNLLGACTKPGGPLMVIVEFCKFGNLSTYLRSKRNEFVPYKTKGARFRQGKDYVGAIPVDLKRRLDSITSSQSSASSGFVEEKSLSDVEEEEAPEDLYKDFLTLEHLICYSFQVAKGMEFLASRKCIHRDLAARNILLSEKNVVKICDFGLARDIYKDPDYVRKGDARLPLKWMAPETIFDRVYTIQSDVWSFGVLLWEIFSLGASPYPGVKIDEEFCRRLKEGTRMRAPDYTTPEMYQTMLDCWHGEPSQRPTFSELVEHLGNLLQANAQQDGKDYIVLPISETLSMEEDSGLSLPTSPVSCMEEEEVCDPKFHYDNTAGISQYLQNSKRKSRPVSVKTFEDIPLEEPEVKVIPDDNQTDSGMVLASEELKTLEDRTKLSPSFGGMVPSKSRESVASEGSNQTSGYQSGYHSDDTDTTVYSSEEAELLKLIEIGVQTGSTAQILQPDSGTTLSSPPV

IC50 [1] [nM] | Compound | inhibition in vivo at 3 nmol/eye [2, 4] [%] | IC50 ([3]; Homo sapiens) [nM] | Inhibition of CNV Progression (%) ([2]; dose 3 nmol/eye) | IC50 [3] [nM] | inhibition in vivo at 10 nmol/eye ([2]; Rattus norvegicus, 240 h, dose 10 nmol/eye, read-out: Inhibition of CNV Progression (%)) [%]
33 | COCCOCCOCCOCCOc1ccc(NCc2ccc(-c3cc4nccc(Oc5ccc(NC(=O)NC6CC6)cc5F)c4s3)nc2)cc1 [Compound 39] | 24.7 | 6 |  |  | 
7 | COCCOCCOCCOCCN(C(C)=O)C1CCN(Cc2ccc(-c3cc4nccc(Oc5ccc(NC(=O)NC6CC6)cc5F)c4s3)nc2)CC1 [Compound 65, N-(1-((6-(7-(4-(3-Cyclopropylureido)-2-fluorophenoxy)thieno[3,2-b]pyridin-2-yl)pyridin-3-yl)methyl)piperidin-4-yl)-N-(2,5,8,11-tetraoxamidecan-13-yl)acetamide] |  |  | 32.1 | 2 | 
9 | O=C(Nc1ccc(Oc2ccnc3cc(-c4ccc(CN5CCN(C(=O)COP(=O)(O)O)CC5)cn4)sc23)c(F)c1)NC1CC1 [Compound 6, 2-(4-((6-(7-(4-(3-Cyclopropylureido)-2-fluorophenoxy)thieno[3,2-b]pyridin-2-yl)pyridin-3-yl)methyl)piperazin-1-yl)-2-oxoethyl dihydrogen phosphate] | 20.9 | 0.4 |  |  | 
8 | COCCOCCOCCOC(=O)N1CCN(Cc2ccc(-c3cc4nccc(Oc5ccc(NC(=O)NC6CC6)cc5F)c4s3)nc2)CC1 [Compound 50, 2-(2-(2-Methoxyethoxy)ethoxy)ethyl 4-((6-(7-(4-(3-cyclopropylureido)-2-fluorophenoxy)thieno[3,2-b]pyridin-2-yl)pyridin-3-yl)methyl)piperazine-1-carboxylate] |  | 0.8 |  |  | 80.6
6 | COCCOCCOCCOCCN1CCN(Cc2ccc(-c3cc4nccc(Oc5ccc(NC(=O)NC6CC6)cc5F)c4s3)nc2)CC1 [Compound 7, 1-(4-(2-(5-((4-(2,5,8,11-Tetraoxamidecan-13-yl)piperazin-1-yl)methyl)pyridin-2-yl)thieno[3,2-b]pyridin-7-yloxy)-3-fluorophenyl)-3-cyclopropylurea] | 18.1 | 0.2 |  |  | 
18 | COCCOCCOCCOCCn1cc(-c2cc3nccc(Oc4ccc(NC(=O)NC5CC5)cc4F)c3s2)nn1 [Compound 30, 1-(4-(2-(1-(2,5,8,11-Tetraoxamidecan-13-yl)-1H-1,2,3-triazol-4-yl)thieno[3,2-b]pyridin-7-yloxy)-3-fluorophenyl)-3-cyclopropylurea] | 26.4 | 70 |  |  | 
10 | COCCOCCOCCOCCOC1CN(Cc2ccc(-c3cc4nccc(Oc5ccc(NC(=O)NC6CC6)cc5F)c4s3)nc2)C1 [Compound 60, 1-(4-(2-(5-((3-(2,5,8,11-tetraoxamidecan-13-yloxy)azetidin-1-yl)methyl)pyridin-2-yl)thieno[3,2-b]pyridin-7-yloxy)-3-fluorophenyl)-3-cyclopropylurea] |  |  |  | 1.5 | 
8 | COCCOCCOCCOCCOCCC(=O)N1CCN(Cc2ccc(-c3cc4nccc(Oc5ccc(NC(=O)NC6CC6)cc5F)c4s3)nc2)CC1 [Compound 49] | 20.9 |  |  |  | 
12 | COCCOCCOCCOCCN1CCC(N(Cc2ccc(-c3cc4nccc(Oc5ccc(NC(=O)NC6CC6)cc5F)c4s3)nc2)C(C)=O)CC1 [Compound 69, N-(1-(2,5,8,11-Tetraoxamidecan-13-yl)piperidin-4-yl)-N-((6-(7-(4-(3-cyclopropylureido)-2-fluorophenoxy)thieno[3,2-b]pyridin-2-yl)pyridin-3-yl)methyl)acetamide] |  |  |  | 25 | 
